From patent US20240228489A1, “POSITIVE ALLOSTERIC MODULATORS OF THE MUSCARINIC ACETYLCHOLINE RECEPTOR M1” (Vanderbilt University, priority 2021, published 2024) come the findings set out here.

Test [1] has as its target T1, human mAChR M1 (Homo sapiens, UniProt P11229).
T1 sequence (P11229 1-460): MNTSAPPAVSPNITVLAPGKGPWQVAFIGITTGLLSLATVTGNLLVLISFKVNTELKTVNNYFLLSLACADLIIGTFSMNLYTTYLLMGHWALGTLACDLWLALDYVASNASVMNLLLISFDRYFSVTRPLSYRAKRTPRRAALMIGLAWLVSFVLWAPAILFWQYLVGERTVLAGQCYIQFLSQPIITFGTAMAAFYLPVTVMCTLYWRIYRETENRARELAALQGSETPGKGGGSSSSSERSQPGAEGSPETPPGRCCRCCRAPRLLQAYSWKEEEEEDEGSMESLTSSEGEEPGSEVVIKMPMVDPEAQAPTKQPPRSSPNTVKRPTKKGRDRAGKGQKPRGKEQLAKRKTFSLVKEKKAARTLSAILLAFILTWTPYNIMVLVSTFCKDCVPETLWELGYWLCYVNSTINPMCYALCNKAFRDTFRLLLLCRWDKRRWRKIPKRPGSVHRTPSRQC
Put plainly: mAChR M1 cell-based functional assay (calcium mobilization), PAM mode: increase in the EC20 acetylcholine response. The essentials: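 PAM readout is the concentration-dependent rise in the EC20 acetylcholine calcium signal, fitted to a four-parameter logistic (EC50, Emax). Compounds were preincubated from 4 s before ACh at 144 s (EC20) and 230 s (EC80). hM1-expressing CHO-K1 cells loaded with Fluo-4, FDSS ratio read.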
For orientation: Calcium flux is commonly read through the fluorescence of an indicator in the cells.

Test [2] deals with T1, human mAChR M1. Nature of the test: mAChR M1 cell-based functional assay (calcium mobilization), agonist mode: compound alone, Emax relative to acetylcholine maximum. Particulars: for pEC50 / Agonist Activity Human M1 EC50: human mAChR M1; call rule not given here. The essentials:
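Agonist activity is the concentration-dependent rise in intracellular calcium (Fluo-4, 1 Hz read) after compound addition, measured before any acetylcholine was added, in stable hM1 CHO-K1 cells. Curves were 11-point, 1:3 dilutions fitted by four-parameter logistic. Emax is given as a fraction of maximal acetylcholine response.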

Where [3] appears, read: relative to the maximum for acetylcholine.

pEC50: −log10 of the molar value.

A word on the pEC50: it is the negative decadic logarithm of the EC50, by convention in mol/L. A word on the Emax: it is the maximal effect, on the per cent scale that the assay sets. Regarding `[2H]C([2H])([2H])Oc1ccc(-c2cc(F)c(CN3C(=O)c4cccnc4C3([2H])[2H])c(F)c2)c2cn(C)nc12` [Compound 93, 6-(2,6-difluoro-4-(7-(methoxy-d3)-2-methyl-2H-indazol-4-yl)benzyl)-6,7-dihydro-5H-pyrrolo[3,4-b]pyridin-5-one-7,7-d2], the negative-log EC50 (pEC50) on human mAChR M1 [1] is 6.88; on human mAChR M1 [2], 5.48. Also, the Emax on human mAChR M1 [1] was found to be 76%; on human mAChR M1 [2] (setting [3]), 21%.

For `[2H]C1([2H])c2ncccc2C(=O)N1Cc1c(F)cc(-c2ccc(Cl)c3nn(C([2H])([2H])[2H])cc23)cc1F` [Compound 73, 6-(4-(7-chloro-2-(methyl-d3)-2H-indazol-4-yl)-2,6-difluorobenzyl)-6,7-dihydro-5H-pyrrolo[3,4-b]pyridin-5-one-7,7-d2], on human mAChR M1 [1], the pEC50 is 6.77 and the Emax came to 77%. Further, the “Agonist Activity Human M1 EC50” value on human mAChR M1 [2] is given as “Inactive”. On human mAChR M1 [2] (setting [3]), the Emax turned out to be 1%.

As to `[2H]C1([2H])c2ncccc2C(=O)N1Cc1c(C)cc(-c2ccc(F)c3nn(C([2H])([2H])[2H])cc23)cc1F` [Compound 158, 6-(2-fluoro-4-(7-fluoro-2-(methyl-d3)-2H-indazol-4-yl)-6-methylbenzyl)-6,7-dihydro-5H-pyrrolo[3,4-b]pyridin-5-one-7,7-d2], at human mAChR M1 [1], the negative logarithm of the EC50 (pEC50) is 6.42 and the Emax stood at 80%. The “Agonist Activity Human M1 EC50” value on human mAChR M1 [2] is listed as “Inactive”. The Emax at human mAChR M1 [2] (setting [3]) was found to be 6%.

`[2H]C1([2H])c2ncc(OCCc3ccccn3)cc2C(=O)N1Cc1c(F)cc(-c2cccc3nn(C([2H])([2H])[2H])cc23)cc1F` [Compound 126, 6-(2,6-difluoro-4-(2-(methyl-d3)-2H-indazol-4-yl)benzyl)-3-(2-(pyridin-2-yl)ethoxy)-6,7-dihydro-5H-pyrrolo[3,4-b]pyridin-5-one-7,7-d2]: the negative logarithm of the EC50 (pEC50) at human mAChR M1 [1] was 6.37; at human mAChR M1 [2], ≤ 5.00. For the same compound, the maximum response (Emax) is 65% at human mAChR M1 [1] and 14% at human mAChR M1 [2] (setting [3]).

For the compound `[2H]C([2H])([2H])c1cc2c(-c3cc(F)c(CN4C(=O)c5cccnc5C4([2H])[2H])c(F)c3)cccn2n1` [Compound 236, 6-(2,6-Difluoro-4-(2-(methyl-d3)pyrazolo[1,5-a]pyridin-4-yl)benzyl)-6,7-dihydro-5H-pyrrolo[3,4-b]pyridin-5-one-7,7-d2], the results for the negative logarithm of the EC50 (pEC50) at human mAChR M1 [1] and at human mAChR M1 [2] were 6.13 and 5.02, respectively. For the same compound, the maximal response (Emax) on human mAChR M1 [1] was found to be 76%; at human mAChR M1 [2] (setting [3]), 22%.

For `[2H]C1([2H])c2ncccc2C(=O)N1Cc1c(F)cc(-c2cc(Cl)cc3nn(C)cc23)cc1F` [Compound 75, 6-(4-(6-chloro-2-methyl-2H-indazol-4-yl)-2,6-difluorobenzyl)-6,7-dihydro-5H-pyrrolo[3,4-b]pyridin-5-one-7,7-d2], on human mAChR M1 [1], the negative logarithm of the EC50 (pEC50) was 6.20 and the Emax was determined as 55%. Besides, the “Agonist Activity Human M1 EC50” value at human mAChR M1 [2] is “Inactive”. Also, the maximal effect (Emax) on human mAChR M1 [2] (setting [3]) was determined as 1%.

For `[2H]C1([2H])c2ncccc2C(=O)N1Cc1c(F)cc(-c2cccc3nn(C([2H])([2H])[2H])c(F)c23)cc1C1CC1` [Compound 191, 6-(2-Cyclopropyl-6-fluoro-4-(3-fluoro-2-(methyl-d3)-2H-indazol-4-yl)benzyl)-6,7-dihydro-5H-pyrrolo[3,4-b]pyridin-5-one-7,7-d2], at human mAChR M1 [1], the pEC50 was 5.98 and the Emax worked out at 58%. Also, on human mAChR M1 [2], the “Agonist Activity Human M1 EC50” value is “Inactive”. Further, at human mAChR M1 [2] (setting [3]), the Emax was determined as 2%.

With `[2H]C1([2H])c2ncccc2C(=O)N1Cc1c(F)cc(-c2cc(F)c(Cl)c3nn(C)cc23)cc1F` [Compound 77, 6-(4-(7-chloro-6-fluoro-2-methyl-2H-indazol-4-yl)-2,6-difluorobenzyl)-6,7-dihydro-5H-pyrrolo[3,4-b]pyridin-5-one-7,7-d2], on human mAChR M1 [1], the negative-log EC50 (pEC50) is 5.87 and the “PAM Activity Emax” value is recorded as 47%. Further, the “Agonist Activity Human M1 EC50” value at human mAChR M1 [2] was “Inactive”. The “Agonist Activity Emax” value at human mAChR M1 [2] (setting [3]) was found to be 1%.

`[2H]C1([2H])c2ncccc2C(=O)N1Cc1c(F)cc(-c2cccc3nn(C([2H])([2H])[2H])cc23)cc1Cl` [Compound 161, 6-(2-chloro-6-fluoro-4-(2-(methyl-d3)-2H-indazol-4-yl)benzyl)-6,7-dihydro-5H-pyrrolo[3,4-b]pyridin-5-one-7,7-d2]: on human mAChR M1 [1], the negative-log EC50 (pEC50) is 6.45 and the Emax came to 81%. Also, the “Agonist Activity Human M1 EC50” value on human mAChR M1 [2] is on record as “Inactive”. Moreover, at human mAChR M1 [2] (setting [3]), the Emax was 6%.

Turning to `[2H]C1([2H])c2ncccc2C(=O)N1Cc1ccc(-c2cc(F)cc3nn(C)cc23)cc1` [Compound 72, 6-(4-(6-fluoro-2-methyl-2H-indazol-4-yl)benzyl)-6,7-dihydro-5H-pyrrolo[3,4-b]pyridin-5-one-7,7-d2], at human mAChR M1 [1], the pEC50 was 6.33 and the Emax came to 75%. Further, the “Agonist Activity Human M1 EC50” value on human mAChR M1 [2] is given as “Inactive”. For the same compound, at human mAChR M1 [2] (setting [3]), the Emax amounted to 4%.

With `[2H]C1([2H])c2ncccc2C(=O)N1Cc1c(F)cc(-c2ccc(F)c3nn(C([2H])([2H])[2H])cc23)cc1F` [Compound 45, 6-(2,6-difluoro-4-(7-fluoro-2-(methyl-d^3)-2H-indazol-4-yl)benzyl)-6,7-dihydro-5H-pyrrolo[3,4-b]pyridin-5-one-7,7-d2], on human mAChR M1 [1], the pEC50 is 6.39 and the Emax was found to be 73%. Moreover, the “Agonist Activity Human M1 EC50” value at human mAChR M1 [2] is reported as “Inactive”. In addition, the Emax on human mAChR M1 [2] (setting [3]) was 2%.

Regarding `[2H]C1([2H])c2ncccc2C(=O)N1Cc1c(C)cc(-c2ccnc3nn(C)cc23)cc1F` [Compound 201, 6-(2-fluoro-6-methyl-4-(2-methyl-2H-pyrazolo[3,4-b]pyridin-4-yl)benzyl)-6,7-dihydro-5H-pyrrolo[3,4-b]pyridin-5-one-7,7-d2], the negative logarithm of the EC50 (pEC50) on human mAChR M1 [1] was 6.48; at human mAChR M1 [2], 5.28. Moreover, the Emax is 83% at human mAChR M1 [1] and 43% on human mAChR M1 [2] (setting [3]).

`[2H]C1([2H])c2ncccc2C(=O)N1Cc1c(F)cc(-c2ccc3nn(C)cc3c2)cc1OCC(C)C` [Compound 211, 6-(2-fluoro-6-isobutoxy-4-(2-methyl-2H-indazol-5-yl)benzyl)-6,7-dihydro-5H-pyrrolo[3,4-b]pyridin-5-one-7,7-d2]: on human mAChR M1 [1], the negative-log EC50 (pEC50) is 5.89 and the Emax was 88%. Besides, the “Agonist Activity Human M1 EC50” value on human mAChR M1 [2] is given as “Inactive”. For the same compound, the maximum response (Emax) at human mAChR M1 [2] (setting [3]) worked out at 3%.

On to `[2H]C1([2H])c2ncccc2C(=O)N1Cc1ccc(-c2cccc3nncn23)cc1` [Compound 239, 6-(4-([1,2,4]triazolo[4,3-a]pyridin-5-yl)benzyl)-6,7-dihydro-5H-pyrrolo[3,4-b]pyridin-5-one-7,7-d2], for which, at human mAChR M1 [1], the pEC50 is < 5.00 and the maximal effect (Emax) amounted to 44%. Besides, the “Agonist Activity Human M1 EC50” value on human mAChR M1 [2] is recorded as “Inactive”. Moreover, the Emax at human mAChR M1 [2] (setting [3]) worked out at 3%.

As to `[2H]C1([2H])c2ncccc2C(=O)N1Cc1c(F)cc(-c2ccc(C(F)(F)F)c3c2cnn3C([2H])([2H])[2H])cc1F` [Compound 244, 6-(2,6-difluoro-4-(1-(methyl-d3)-7-(trifluoromethyl)-1H-indazol-4-yl)benzyl)-6,7-dihydro-5H-pyrrolo[3,4-b]pyridin-5-one-7,7-d2], on human mAChR M1 [1], the pEC50 was < 5.00 and the Emax worked out at 34%. Further, at human mAChR M1 [2], the “Agonist Activity Human M1 EC50” value is on record as “Inactive”. At human mAChR M1 [2] (setting [3]), the Emax came out at 2%.

For `[2H]C1([2H])c2ncccc2C(=O)N1Cc1c(F)cc(-c2ccc(OC3CCOCC3)c3nn(C)cc23)cc1F` [Compound 140, 6-(2,6-difluoro-4-(2-methyl-7-((tetrahydro-2H-pyran-4-yl)oxy)-2H-indazol-4-yl)benzyl)-6,7-dihydro-5H-pyrrolo[3,4-b]pyridin-5-one-7,7-d2], the negative logarithm of the EC50 (pEC50) on human mAChR M1 [1] is 6.54; on human mAChR M1 [2], 5.09. For the same compound, the results for the Emax at human mAChR M1 [1] and on human mAChR M1 [2] (setting [3]) were 72% and 54%, respectively.

Regarding `[2H]C1([2H])c2ncccc2C(=O)N1Cc1ccc(-c2ccc(OC)c3nn(C([2H])([2H])[2H])cc23)cc1F` [Compound 55, 6-(2-fluoro-4-(7-methoxy-2-(methyl-d3)-2H-indazol-4-yl)benzyl)-6,7-dihydro-5H-pyrrolo[3,4-b]pyridin-5-one-7,7-d2], at human mAChR M1 [1], the pEC50 was 6.56 and the maximal response (Emax) is 88%. Further, the “Agonist Activity Human M1 EC50” value on human mAChR M1 [2] is on record as “Inactive”. The Emax on human mAChR M1 [2] (setting [3]) is 7%.

In the case of `[2H]C1([2H])c2ncccc2C(=O)N1Cc1c(F)cc(-c2cc(F)cc3c2cnn3C([2H])([2H])[2H])cc1F` [Compound 247, 6-(2,6-difluoro-4-(6-fluoro-1-(methyl-d3)-1H-indazol-4-yl)benzyl)-6,7-dihydro-5H-pyrrolo[3,4-b]pyridin-5-one-7,7-d2], on human mAChR M1 [1], the pEC50 was < 5.00 and the Emax stood at 29%. The “Agonist Activity Human M1 EC50” value on human mAChR M1 [2] is “Inactive”. Also, the maximal response (Emax) at human mAChR M1 [2] (setting [3]) amounted to 2%.

Consider `[2H]C1([2H])c2ncccc2C(=O)N1Cc1c(F)cc(-c2cccc3nn(C(C)C)cc23)cc1F` [Compound 43, 6-(2,6-difluoro-4-(2-isopropyl-2H-indazol-4-yl)benzyl)-6,7-dihydro-5H-pyrrolo[3,4-b]pyridin-5-one-7,7-d2], for which the negative logarithm of the EC50 (pEC50) was 5.93 at human mAChR M1 [1] and < 5.00 at human mAChR M1 [2]. For the same compound, the Emax is 86% on human mAChR M1 [1] and 2% on human mAChR M1 [2] (setting [3]).
